Experimental data taken from PubChem BioAssay (NCI).
Several values for one entry are separate records, joined by “and”; a condition that tells them apart may be missing. Equal entries are not always repeated.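 Dose response: 5 concentrations. Exposure: 48 h. Format: 96-well plates. Endpoint: linear interpolation; highest concentration if not reached. GI50 marks 50% less growth. TGI: concentration producing complete growth inhibition.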

Columns and labels:
Assay in all cases: DTP human tumour cell line panel, 48 h
[1] = system: A549 NSCLC
[2] = system: COLO 205 colon
[3] = system: HCT-116 colon
[4] = system: HL-60(TB) leukemia
[5] = system: HOP-62 NSCLC
[6] = system: IGROV1 ovarian
[7] = system: OVCAR-3 ovarian
[8] = system: SK-MEL-2 melanoma
[9] = system: MOLT-4 leukemia
[10] = system: SR leukemia

| SMILES | TGI [1] [µM] | TGI [2] [µM] | TGI [3] [µM] | TGI [4] [µM] | TGI [5] [µM] | TGI [6] [µM] | TGI [7] [µM] | TGI [8] [µM] | TGI [9] [µM] | TGI [10] [µM] | GI50 [1] | GI50 [2] | GI50 [3] | GI50 [4] | GI50 [5] | GI50 [6] | GI50 [9] | GI50 [7] | GI50 [8] | GI50 [10] [µM] |
| --- | --- | --- | --- | --- | --- | --- | --- | --- | --- | --- | --- | --- | --- | --- | --- | --- | --- | --- | --- | --- |
| Cc1cc(N(CCC#N)S(C)(=O)=O)ccc1C=Nc1ccc(C(=O)NN2C(=O)/C(=C/c3ccc(N(CCC#N)CCC#N)cc3C)N=C2c2cc([N+](=O)[O-])ccc2Cl)cc1 | > 100 | > 100 | > 100 | > 100 | > 100 | > 100 | > 100 | > 100 | – | – | – | – | – | – | – | – | – | – | – | – |
| CCCCCCCCCCCCCCCCCC(=O)OCC(COC(=O)CCCN)OC(=O)CCCN (configuration not stated) | 16.4 | 31.1 | 40.1 | 77 | 33.8 | 8.01 | 35.3 | – | 70.8 | > 100 | – | – | – | – | – | – | – | – | – | – |
| Cc1ccc(S(=O)(=O)NNC(=O)c2cc(C)c(C)cc2N)cc1 | – | > 100 | > 100 | > 100 | > 100 | > 100 | > 100 | – | > 100 | > 100 | – | – | – | – | – | – | – | – | – | – |
| Cc1cc(Cl)ccc1NC(=O)C(=O)C(C(=O)c1ccc2ccccc2c1)C1OC(=O)c2ccccc21 (configuration not stated) | 94.5 | 28.5 | 21.7 | – | 26.6 | > 100 | 33.3 | 27.3 | – | – | – | – | – | – | – | – | – | – | – | – |
| COc1ccc(OC)c(-c2cc(-c3ccc(Cl)cc3)nn2-c2ccc(S(=O)(=O)NC(C)=O)cc2)c1 | > 100 | 46.7 | 11.2 | 41.9 | 22.2 | > 100 | 64.7 | 70 | 27.8 | – | 28.6 µM | 18.2 µM | 2.84 µM | 3.7 µM | 10.5 µM | 37.2 µM | 5.62 µM | 25.4 µM | 26.6 µM | – |
| CO[C@H](C(=O)[C@@H](O)[C@@H](C)O)[C@@H]1Cc2cc3cc(OC4CC(OC5CC(O)C(O)C(C)O5)C(O)C(C)O4)c(C)c(O)c3c(O)c2C(=O)[C@H]1OC1CC(OC2CC(OC3CC(C)(O)C(O)C(C)O3)C(O)C(C)O2)C(O)C(C)O1 (some centres not stated) | – | – | – | – | – | – | – | – | – | – | 0.027 µg/mL and 0.0212 µg/mL | 0.0144 µg/mL and 0.0182 µg/mL | 0.0194 µg/mL and 0.0116 µg/mL | 0.05 µg/mL and 0.0761 µg/mL | 0.0237 µg/mL and 0.02 µg/mL | 0.0472 µg/mL and 0.0289 µg/mL | 0.0223 µg/mL | 0.0235 µg/mL and 0.0222 µg/mL | 0.0152 µg/mL and 0.0126 µg/mL | – |
| COc1nc(N)nc2c1ncn2C1OC(CO)C(O)C1O (configuration not stated) | > 5000 | 2250 | > 5000 | > 5000 | > 5000 | > 5000 | > 5000 | > 5000 | 2260 | – | 701 µM | 520 µM | > 5000 µM | 1190 µM | 2010 µM | – | 5.7 µM and 19.5 µM | > 5000 µM | 2570 µM | – |
| CCC(CNc1cc(OC)cc2cccnc12)NC1CCCCC1 (configuration not stated) | > 100 | 24.6 | 27.9 | 41.7 | > 100 | 44.9 | 65.5 | – | > 100 | 96.1 | 63.3 µM | 11.3 µM | 10.9 µM | 15.2 µM | 66 µM | 10.6 µM | 36 µM | 17.3 µM | – | 24.5 |
| CN(C)C=C1C(Cl)=C(C=O)CC(C=O)=C1Cl | > 100 | 30.6 | – | 4.74 | 51.7 | 33 | 27.7 | 36.9 | 10.2 | – | – | – | – | – | – | – | – | – | – | – |
| O=C(Nc1cccc(O)c1)C(=O)C(C(=O)c1ccc(Cl)c(Cl)c1)C1OC(=O)c2ccccc21 (configuration not stated) | > 100 | 30.7 | 48.2 | 36.5 | – | 56.5 | – | 63.9 | 29.2 | 26.6 | – | – | – | – | – | – | – | – | – | – |
| COc1cc(CNc2ccccc2C(=O)N2CCN(C(=O)c3cc(-c4cc(OC)c(OC)c(OC)c4)n4nc(-c5ccccc5)cc4n3)CC2)cc(OC)c1OC | > 100 | 15.4 | – | > 100 | > 100 | > 100 | 9.59 | > 100 | > 100 | > 100 | 3.55 µM | 4.1 µM | – | 1.98 µM | 6.04 µM | 7.73 µM | 3.32 µM | 2.69 µM | 4.37 µM | 0.581 |
| CC(C)(C)C1CCC2c3c([nH]c4ccccc34)C3C(=O)N(c4ccccc4)C(=O)C3C2C1 (configuration not stated) | 46 | 17.8 | – | 30.6 | – | 39.4 | 19.1 | – | 14 | – | – | – | – | – | – | – | – | – | – | – |
| CSc1n[n+]2c(s1)SCCC2 | 92.3 | 48.3 | > 100 | > 100 | > 100 | > 100 | > 100 | – | > 100 | > 100 | – | – | – | – | – | – | – | – | – | – |
| O=[N+]([O-])C1Cc2ccccc2OC1c1ccccc1 (configuration not stated) | > 100 | > 100 | > 100 | > 100 | 83.2 | > 100 | > 100 | – | 70.7 | 66.6 | – | – | – | – | – | – | – | – | – | – |
| CC(=O)[CH-]C(=O)c1ccccc1.CC(=O)[CH-]C(=O)c1ccccc1.CCOCC[O-].CCOCC[O-].[Ti+4] | 90.5 | – | 35.6 | 45.4 | 85.8 | > 100 | > 100 | 29.6 | 56.5 | – | 28.7 µM | – | 17.3 µM | 13.8 µM | 25.9 µM | 31.9 µM | 10.4 µM | 21.6 µM | 14.2 µM | – |
| COc1ccc(/C=N\Nc2ccc([N+](=O)[O-])cn2)cc1OC | – | – | – | – | > 100 | – | – | > 100 | > 100 | > 100 | – | – | – | – | 10.5 µM | – | > 100 µM | – | > 100 µM | > 100 |
| C=C[C@@]1(O)CCCC2=C(C(=O)OCC)CC[C@]21C | > 100 | > 100 | – | > 100 | – | > 100 | > 100 | > 100 | > 100 | > 100 | – | – | – | – | – | – | – | – | – | – |
| O=C(OCc1ncc(-c2ccc(C(F)(F)F)cc2)c(NC2CCCCCC2)n1)c1c(F)c(F)c(F)c(F)c1F | 51.4 | 37.8 | 25.9 | 22 | 34.3 | 7.28 | 13.8 | – | 11.8 | 12.4 | 18.2 µM | 18 µM | 8.46 µM | 5.53 µM | 18.8 µM | 2.86 µM | 3.42 µM | 4.09 µM | – | 3.13 |
